Experimental findings from patent US20260207704A1, “STAPLED PEPTIDES AND METHODS THEREOF” (priority 2022, published 2026) are described below.

Read-outs that look alike come from different tables or passages of the source. *1 amine or outer side, *2 acyl side, *3 side chain or, on linkers, in order; H or OH if unused. Bridges are numbered along the chain shown (N, C = ends). Primed or numbered codes have the meaning given here. [ ]: non-standard residue; d: D form. PyrS2(6) = (S)-3-amino-1-((pent-4-en-1-yloxy)carbonyl)pyrrolidine-3-carboxylic acid, stapled with another olefin-containing amino acid residue through the olefin group, O=C(OCCCC=[*:3])N1CC[C@@](N[*:1])(C(=O)[*:2])C1; B5(4) = 2-amino-2-(pent-4-en-1-yl)hept-6-enoic acid, stapled through each of its two olefin groups with other olefin-containing amino acid residues, O=C(C(CCCC=[*:3])(CCCC=[*:4])N[*:1])[*:2]; PyrS2″ = (S)-3-amino-1-((pent-4-en-1-yloxy)carbonyl)pyrrolidine-3-carboxylic acid (olefin stapling residue), C=CCCCOC(=O)N1CC[C@@](N[*:1])(C(=O)[*:2])C1; PyrS2 = (S)-3-amino-1-((pent-4-en-1-yloxy)carbonyl)pyrrolidine-3-carboxylic acid, olefin staple residue, C=CCCCOC(=O)N1CC[C@@](N[*:1])(C(=O)[*:2])C1; PyrS2(5) = (S)-3-amino-1-((pent-4-en-1-yloxy)carbonyl)pyrrolidine-3-carboxylic acid, C=CCCCOC(=O)N1CC[C@@](N[*:1])(C(=O)[*:2])C1; B5″ = 2-amino-2-(pent-4-en-1-yl)hept-6-enoic acid (bis-olefin stapling residue), C=CCCCC(CCCC=C)(N[*:1])C(=O)[*:2]; B5(5) = 2-amino-2-(pent-4-en-1-yl)hept-6-enoic acid (two olefin arms), C=CCCCC(CCCC=C)(N[*:1])C(=O)[*:2]; Phe(3-COOH) = N[C@@H](Cc1cccc(C(=O)O)c1)C(=O)O; 2F3MeF = Cc1cccc(C[C@H](N[*:1])C(=O)[*:2])c1F; Bta = N[C@@H](Cc1csc2ccccc12)C(=O)O; αAllylPro = C=CC[C@@]1(C(=O)O)CCCN1; tBuAla = CC(C)(C)C[C@H](N)C(=O)O; 3Thi = N[C@@H](Cc1ccsc1)C(=O)O; TriAzLys(3) = not defined here; hSer = N[C@@H](CCO)C(=O)O; 2F3MeF(4) = Phe analogue; AsnR = not defined here; GlnR = not defined here; sAla = not defined here; B5 = not defined here; Aib = CC(C)(N)C(=O)O A value given as a limit tells only on which side of the number the result lay.

One assay has as its system COLO320DM cells. The assay can be described thus: COLO320DM proliferation assay. As to conditions: read-out: COLO320DM Proliferation Abs IC50. The assay is classed as cell-based, human. The protocol:
Various technologies can be utilized to assess technologies of the present disclosure. For example, in some embodiments, solubility, LogD, interactions with targets, etc. of various agents such as stapled peptides were assessed using technologies described in WO 2022/261257 (e.g., those in its Examples). In some embodiments, solubility, shake flask LogD, and binding to beta-catenin were assessed. In some embodiments, an assay for assessing interactions, e.g., with beta-catenin, was fluorescence polarization as described in WO 2022/261257. In some embodiments, an assay was Nano-BRET target engagement assay that assessed beta-catenin/TCF4 engagement as described in WO 2022/261257. In some embodiments, an assay was a reporter assay as reported in Example 4 of WO 2022/261257. In some embodiments, an assay was a COLO320DM proliferation assay as reported in Example 4 of WO 2022/261257.
Among other things, provided technologies can inhibit proliferation of various cells including various cancer cells. In some embodiments, provided technologies modulate WNT specific transcription. In some embodiments, provided technologies induce cell cycle arrest. In some embodiments, provided technologies induce G1 cell cycle arrest. In some embodiments, provided technologies increased proportion of cells in G1 phase of cell cycle. As confirmed in FIG. 3, provided technologies can inhibit proliferation of COLO320DM, which is a colorectal cell line comprising various mutations such as APC, TP53, etc., modulate WNT specific transcription such as of AXIN2 and CXCL12, and induce G1 cell cycle arrest. In some embodiments, it was confirmed that provided technologies can reduce proportion of cells in S phase of cell cycle.

A further assay relates to DLD1 reporter. Kind of assay: reporter assay (DLD1 reporter assay). Particulars: read-out: DLD1 4% Abs IC50. Format: cell-based.
Assay [1] concerns the target beta-catenin (human). The assay can be described thus: fluorescence polarization; bin >750 nM. (In general: Fluorescence polarisation rises when a labelled molecule tumbles more slowly, as on binding a larger partner.)
Assay [2] addresses beta-catenin (human). The assay can be described thus: cell-based or functional assay.
Target sequence in this assay (B6V8E6 146-665 limits assumed): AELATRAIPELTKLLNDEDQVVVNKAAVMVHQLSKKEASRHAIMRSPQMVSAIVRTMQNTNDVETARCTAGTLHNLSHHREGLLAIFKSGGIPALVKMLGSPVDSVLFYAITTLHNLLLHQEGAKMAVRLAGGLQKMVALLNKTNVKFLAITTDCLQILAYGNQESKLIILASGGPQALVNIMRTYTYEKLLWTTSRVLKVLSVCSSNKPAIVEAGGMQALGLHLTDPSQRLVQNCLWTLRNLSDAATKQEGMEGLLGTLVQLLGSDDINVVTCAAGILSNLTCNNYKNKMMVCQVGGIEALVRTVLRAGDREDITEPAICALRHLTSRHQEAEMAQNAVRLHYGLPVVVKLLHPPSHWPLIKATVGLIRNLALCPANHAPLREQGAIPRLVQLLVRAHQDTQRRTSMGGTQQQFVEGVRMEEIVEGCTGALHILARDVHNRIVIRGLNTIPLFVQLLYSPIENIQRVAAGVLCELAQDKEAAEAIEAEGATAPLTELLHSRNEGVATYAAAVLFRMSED

As to `CC(=O)N1CCC[C@]12CC=CCCCC1(CCCC=CCCCOC(=O)N3CC[C@@]4(C3)NC(=O)[C@H](CCCCNC(=O)CC[C@@H](C(=O)N[C@@H](C)C(N)=O)NC(=O)[C@H](Cc3csc5ccccc35)NC(=O)[C@H](Cc3ccccc3C(F)(F)F)NC4=O)NC(=O)[C@H](Cc3ccccc3)NC(=O)[C@H](C)NC(=O)C(C)(C)NC(=O)[C@H](Cc3cccc(C(=O)O)c3)NC(=O)[C@H](CC(=O)O)NC1=O)NC(=O)[C@H](CC(C)(C)C)NC(=O)[C@H](CC(=O)O)NC2=O` (single isomer, unassigned) [I-69, Ac-PL3-Asp-Npg-B5-Asp-3COOHF-Aib-Ala-Phe-Lys*3-PyrS2-2F3MeF-BztA-GlnR*3-Ala-NH2], the results for the IC50 in the assay with COLO320DM cells and in the assay with DLD1 reporter (DLD1 4%) were ≤ 10 µM and ≤ 1 µM, respectively.

As for `CC(=O)N1CCC[C@]12CC=CCCCC1(CCCC=CCCCOC(=O)N3CC[C@@]4(C3)NC(=O)[C@H](CCCCNC(=O)CC[C@@H](C(=O)N[C@@H](CC(C)C)C(=O)N[C@@H](CO)C(N)=O)NC(=O)[C@H](Cc3csc5ccccc35)NC(=O)[C@H](Cc3ccccc3C(F)(F)F)NC4=O)NC(=O)[C@H](Cc3ccccc3)NC(=O)[C@H](C)NC(=O)C(C)(C)NC(=O)[C@H](Cc3cccc(C(=O)O)c3)NC(=O)[C@H](CC(=O)O)NC1=O)NC(=O)[C@H](CC(C)(C)C)NC(=O)[C@H](CC(=O)O)NC2=O` (relative stereo) [I-138, Ac-PL3-Asp-Npg-B5-Asp-3COOHF-Aib-Ala-Phe-Lys*3-PyrS2-2F3MeF-BztA-GlnR*3-Leu-Ser-NH2], the IC50 is ≤ 10 µM in the assay on COLO320DM cells and ≤ 1 µM in the assay on DLD1 reporter (DLD1 4%).

As for `CC(=O)N1CCC[C@]12CC=CCCCC1(CCCC=CCCCOC(=O)N3CC[C@@]4(C3)NC(=O)[C@H](CCCCn3cc(nn3)COC[C@@H](C(=O)N[C@@H](C)C(N)=O)NC(=O)[C@H](Cc3csc5ccccc35)NC(=O)[C@H](Cc3ccsc3)NC4=O)NC(=O)[C@H](Cc3ccccc3)NC(=O)[C@H](C)NC(=O)C(C)(C)NC(=O)[C@H](Cc3cccc(C(=O)O)c3)NC(=O)[C@H](CC(=O)O)NC1=O)NC(=O)[C@H](CC(C)(C)C)NC(=O)[C@H](CC(=O)O)NC2=O` (relative stereo) [I-262, Ac-PL3-Asp-Npg-B5-Asp-3COOHF-Aib-Ala-Phe-TriAzLys*3-PyrS2-3Thi-BztA-sCH2S*3-Ala-NH2], the IC50 in the assay on COLO320DM cells was ≤ 10 µM; with DLD1 reporter (DLD1 4%) it was ≤ 1 µM.

Regarding `CC(=O)N1CCC[C@]12CC=CCCCC1(CCCC=CCCCOC(=O)N3CC[C@@]4(C3)NC(=O)[C@H](CCCCNC(=O)CC[C@@H](C(=O)N3CCC[C@H]3CO)NC(=O)[C@H](Cc3csc5ccccc35)NC(=O)[C@H](Cc3ccsc3)NC4=O)NC(=O)[C@H](Cc3ccccc3)NC(=O)[C@H](C)NC(=O)[C@H](C)NC(=O)[C@H](Cc3cccc(C(=O)O)c3)NC(=O)[C@H](CC(=O)O)NC1=O)NC(=O)[C@H](CC(C)(C)C)NC(=O)[C@H](CC(=O)O)NC2=O` (relative stereo) [I-64, Ac-PL3-Asp-Npg-B5-Asp-3COOHF-Ala-Ala-Phe-Lys*3-PyrS2-3Thi-BztA-GlnR*3-Prool], the IC50 was 10 to 20 µM in the assay on COLO320DM cells and 1 to 5 µM in the assay with DLD1 reporter (DLD1 4%). Regarding `CC(=O)N1CCC[C@]12CC=CCCCC1(CCCC=CCCCOC(=O)N3CC[C@@]4(C3)NC(=O)[C@H](CCCCn3cc(nn3)C[C@@H](C(=O)N[C@@H](C)C(N)=O)NC(=O)[C@H](Cc3csc5ccccc35)NC(=O)[C@H](Cc3ccsc3)NC4=O)NC(=O)[C@H](Cc3ccccc3)NC(=O)[C@H](C)NC(=O)C(C)(C)NC(=O)[C@H](Cc3cccc(C(=O)O)c3)NC(=O)[C@H](CC(=O)O)NC1=O)NC(=O)[C@H](CC(C)(C)C)NC(=O)[C@H](CC(=O)O)NC2=O` (single isomer, unassigned) [I-335, Ac-PL3-Asp-Npg-B5-Asp-3COOHF-Aib-Ala-Phe-TriAzLys*3-PyrS2-3Thi-BztA-sAla*3-Ala-NH2], the IC50 is ≤ 10 µM in the assay on COLO320DM cells and ≤ 1 µM in the assay with DLD1 reporter (DLD1 reporter, 4%).

With `CC(=O)N1CCC[C@]12CC=CCCCC1(CCCC=CCCCOC(=O)N3CC[C@@]4(C3)NC(=O)[C@H](CCCCNC(=O)CC[C@@H](C(=O)N[C@@H](C)C(N)=O)NC(=O)[C@H](Cc3csc5ccccc35)NC(=O)[C@H](Cc3cccnc3)NC4=O)NC(=O)[C@H](Cc3ccccc3)NC(=O)[C@H](C)NC(=O)C(C)(C)NC(=O)[C@H](Cc3cccc(C(=O)O)c3)NC(=O)[C@H](CC(=O)O)NC1=O)NC(=O)[C@H](CC(C)(C)C)NC(=O)[C@H](CC(=O)O)NC2=O` (relative stereo) [I-300, Ac-PL3-Asp-Npg-B5-Asp-3COOHF-Aib-Ala-Phe-Lys*3-PyrS2-3PyrA-BztA-GlnR*3-Ala-NH2], in the assay on COLO320DM cells, the IC50 was > 20 µM. Take `CCCC[C@@H]1NC(=O)[C@H](Cc2cccc(C(=O)O)c2)NC(=O)[C@H](CC(=O)O)NC(=O)C2(CCCC=CCCCOC(=O)N3CC[C@@]4(C3)NC(=O)[C@H](CCCCNC(=O)CC[C@@H](C(=O)N[C@@H](C)C(N)=O)NC(=O)[C@H](Cc3csc5ccccc35)NC(=O)[C@H](Cc3ccsc3)NC4=O)NC(=O)[C@H](Cc3ccccc3)NC(=O)[C@H](C)NC1=O)CCCC=CC[C@]1(CCCN1C(C)=O)C(=O)N[C@@H](CC(=O)O)C(=O)N[C@@H](CC(C)(C)C)C(=O)N2` (relative stereo) [I-70, Ac-PL3-Asp-Npg-B5-Asp-3COOHF-nLeu-Ala-Phe-Lys*3-PyrS2-3Thi-BztA-GlnR*3-Ala-NH2]: the IC50 with COLO320DM cells was ≤ 10 µM; with DLD1 reporter (DLD1 4%) it was ≤ 1 µM.

B1: I-44 (peptide)
peptide: Ac-[αAllylPro]D[tBuAla][B5(5)]D[Phe(3-COOH)]AAF[AsnR][PyrS2(5)][3Thi][Bta]KA-NH2
modifications: bridge 10-14; reading uncertain; also: PL3/B5/PyrS2 staple links not placed, printed as Ac-PL3-Asp-Npg-B5-Asp-3COOHF-Ala-Ala-Phe-AsnR*3-PyrS2-3Thi-BztA-Lys*3-Ala-NH2
Take B1: the IC50 with beta-catenin (human) [1] was < 1 µM.

B2: I-147 (peptide)
peptide: Ac-[αAllylPro][hSer][tBuAla][B5″]D[Phe(3-COOH)][Aib]AFK[PyrS2″][2F3MeF][Bta][GlnR]LS-NH2
modifications: bridge 10-14; reading uncertain; also: PL3-B5 and PyrS2 links not placed, printed as Ac-PL3-Hse-Npg-B5-Asp-3COOHF-Aib-Ala-Phe-Lys*3-PyrS2-2F3MeF-BztA-GlnR*3-Leu-Ser-NH2
In the case of B2, the IC50 with beta-catenin (human) [1] is < 1 µM.

B3: I-133 (peptide)
peptide: Ac-[αAllylPro]D[tBuAla][B5]D[Phe(3-COOH)][GlnR]AFL[PyrS2][2F3MeF][Bta][GlnR](39N2spiroundecane)A-NH2
modifications: staple 1-4, 4-11 (inferred); not fully specified; printed as Ac-PL3-Asp-Npg-B5-Asp-3COOHF-GlnR-Ala-Phe-Leu-PyrS2-2F3MeF-BztA-[39N2spiroundecane]GlnR-Ala-NH2; reading uncertain; also: staple C=C reduced to CH2-CH2
Turning to B3, the NanoBRET Abs IC50 with beta-catenin (human) [2] is > 10 µM. In addition, in the assay with beta-catenin (human) [1], the IC50 was < 1 µM.

B4: I-26 (peptide)
peptide: Ac-[αAllylPro]D[tBuAla][B5(4)]DD[sAla]AF[TriAzLys(3)][PyrS2(6)][3Thi][Bta]Q-NH2
modifications: triazole 7-10; not fully specified (bridges); printed as Ac-PL3-Asp-Npg-B5-Asp-Asp-sAla*3-Ala-Phe-TriAzLys*3-PyrS2-3Thi-BztA-Gln-NH2; reading uncertain
For the molecule B4, in the assay with beta-catenin (human) [1], the IC50 was < 1 µM.

B5: I-28 (peptide)
peptide: Ac-[αAllylPro]D[tBuAla][B5(4)]D[Phe(3-COOH)][sAla]AF[TriAzLys(3)][PyrS2(6)][2F3MeF(4)][Bta]Q-NH2
modifications: triazole 7-10; not fully specified (bridges); printed as Ac-PL3-Asp-Npg-B5-Asp-3COOHF-sAla*3-Ala-Phe-TriAzLys*3-PyrS2-2F3MeF-BztA-Gln-NH2; reading uncertain
On to B5, for which the IC50 in the assay with beta-catenin (human) [1] is < 1 µM.

B6: I-35 (peptide)
peptide: Ac-[αAllylPro]D[tBuAla][B5(5)]D[Phe(3-COOH)]AAF[AsnR][PyrS2(5)][3Thi][Bta]K-NH2
modifications: bridge 10-14; not fully specified (bridges); printed as Ac-PL3-Asp-Npg-B5-Asp-3COOHF-Ala-Ala-Phe-AsnR*3-PyrS2-3Thi-BztA-Lys*3-NH2; reading uncertain
For B6, in the assay with beta-catenin (human) [1], the IC50 was < 1 µM.
